The record followed here is PubChem BioAssay (NCI).

Test systems include SN12C renal; SK-MEL-5 melanoma; NCI-H460 lung; A498 renal; HCT-116 colon; ACHN renal; OVCAR-8 ovarian; MCF7 breast; HOP-62 NSCLC; U251 CNS.
Holding throughout (assay): NCI tumour cell line growth inhibition, 48 h

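Following 48 hours of exposure in 96-well plates, responses at five concentrations were used to interpolate endpoints linearly. GI50 is the concentration that inhibits growth by half. TGI: total growth inhibition.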 A value given as a limit tells only on which side of the number the result lay.

As to `N=C(N)c1ccc(N2CCCN(c3ccc(C(=N)N)cc3)CC2)cc1`, the GI50 was 66.6 µM with SN12C renal; 27.9 µM with SK-MEL-5 melanoma; 50.6 µM with NCI-H460 lung; 1.76 µM with A498 renal; greater than 100 µM in the assay with HCT-116 colon; greater than 100 µM with ACHN renal. For the same compound, the GI50 in the assay on OVCAR-8 ovarian is 49.6 µM; in the assay with MCF7 breast, 52.3 µM; with HOP-62 NSCLC it was 61.6 µM; in the assay with U251 CNS it was 47.7 µM. For the same compound, the TGI was greater than 100 µM with SN12C renal; greater than 100 µM with SK-MEL-5 melanoma; greater than 100 µM with NCI-H460 lung; 9.62 µM in the assay on A498 renal; greater than 100 µM in the assay with HCT-116 colon; greater than 100 µM in the assay with ACHN renal. The TGI with OVCAR-8 ovarian, in the assay with MCF7 breast, in the assay on HOP-62 NSCLC and with U251 CNS was greater than 100 µM each time.
Turning to `C=CC(=O)Nc1cccc(C)c1Nc1cc(-c2cccnc2Cc2c(C)c(OC)cc(OC)c2C)ncn1`, the GI50 with SN12C renal is 11.2 µM; with SK-MEL-5 melanoma, 10.7 µM; in the assay with NCI-H460 lung, 4.91 µM; in the assay on A498 renal, 1.93 µM; in the assay with HCT-116 colon, 16.6 µM; with ACHN renal it was 17.3 µM. In addition, the GI50 was 12 µM in the assay with OVCAR-8 ovarian, 5.27 µM in the assay on MCF7 breast, 19 µM with HOP-62 NSCLC and 6.26 µM with U251 CNS. For the same compound, the TGI was 64.9 µM with SN12C renal; 23.5 µM in the assay with SK-MEL-5 melanoma; 31.7 µM in the assay with NCI-H460 lung; 9.44 µM with A498 renal; 44.6 µM with HCT-116 colon; greater than 100 µM in the assay on ACHN renal. For the same compound, the TGI is 50 µM with OVCAR-8 ovarian, greater than 100 µM in the assay on MCF7 breast, 75.7 µM in the assay with HOP-62 NSCLC and 30 µM with U251 CNS.
`O=c1[nH]c2ccccc2nc1-c1c[nH]c2ccccc12`: the GI50 with SN12C renal was greater than 100 µM; in the assay with SK-MEL-5 melanoma, greater than 100 µM; in the assay on NCI-H460 lung it was greater than 100 µM; in the assay with A498 renal, 7.4 µM; with HCT-116 colon it was greater than 100 µM; in the assay with ACHN renal, greater than 100 µM. Further, the GI50 was greater than 100 µM in the assay on OVCAR-8 ovarian, 93.4 µM with MCF7 breast, greater than 100 µM with HOP-62 NSCLC and greater than 100 µM in the assay on U251 CNS. Further, the TGI in the assay with SN12C renal, in the assay with SK-MEL-5 melanoma, with NCI-H460 lung, with A498 renal, in the assay on HCT-116 colon and in the assay with ACHN renal was greater than 100 µM in each case. Also, the TGI in the assay on OVCAR-8 ovarian, in the assay with MCF7 breast, in the assay on HOP-62 NSCLC and in the assay on U251 CNS was greater than 100 µM throughout.
For the compound `CC(CN1CCN(CCOCCO)CC1)CN1c2ccccc2Sc2ccc(Cl)cc21` (stereo not given), the GI50 in the assay with SN12C renal is 3.86 µM; in the assay on SK-MEL-5 melanoma, 1.69 µM; in the assay on NCI-H460 lung, 2.36 µM; in the assay on A498 renal, 1.78 µM; in the assay on HCT-116 colon, 2.03 µM; in the assay with ACHN renal it was 3.46 µM. In addition, the GI50 in the assay on OVCAR-8 ovarian was 4.99 µM; in the assay with MCF7 breast it was 2.64 µM; with HOP-62 NSCLC, 3.52 µM; with U251 CNS, 2.19 µM. For the same compound, the TGI with SN12C renal amounted to 17.1 µM; in the assay on SK-MEL-5 melanoma, 3.07 µM; in the assay with NCI-H460 lung, 5.35 µM; with A498 renal it was 5.08 µM; in the assay with HCT-116 colon it was 4.35 µM; in the assay with ACHN renal, 12.6 µM. Further, the TGI in the assay with OVCAR-8 ovarian came to 18.9 µM; in the assay with MCF7 breast it was 6.61 µM; with HOP-62 NSCLC, 13.4 µM; in the assay on U251 CNS it was 6.04 µM.
Turning to `COC(=O)Cn1c2c(c3c(O)cccc31)C(=O)c1ccccc1-2`, the GI50 with SN12C renal, with SK-MEL-5 melanoma, in the assay with NCI-H460 lung, in the assay on A498 renal, with HCT-116 colon and with ACHN renal was greater than 100 µM each time. The GI50 in the assay with OVCAR-8 ovarian is greater than 100 µM; in the assay on MCF7 breast it was greater than 100 µM; in the assay on HOP-62 NSCLC, greater than 100 µM; in the assay with U251 CNS, 79.2 µM. The TGI in the assay on SN12C renal, in the assay with SK-MEL-5 melanoma, in the assay on NCI-H460 lung, in the assay on A498 renal, with HCT-116 colon and with ACHN renal was greater than 100 µM each time. The TGI in the assay with OVCAR-8 ovarian, with MCF7 breast, with HOP-62 NSCLC and with U251 CNS was greater than 100 µM in each case.
With `Cc1cc2c3ccc(C)[n+](C)c3ccc2n1C`, the GI50 with SN12C renal was 2.69 µM; in the assay with SK-MEL-5 melanoma, 3.65 µM; in the assay with NCI-H460 lung it was 3.9 µM; in the assay on A498 renal it was 0.357 µM; in the assay with HCT-116 colon, 2.31 µM; in the assay on ACHN renal it was 21.5 µM. In addition, the GI50 in the assay with OVCAR-8 ovarian was 1.53 µM; with MCF7 breast, 4.07 µM; in the assay on HOP-62 NSCLC, 2.8 µM; in the assay with U251 CNS it was 1.9 µM. For the same compound, the TGI is 15.9 µM in the assay on SN12C renal; 14.8 µM in the assay with SK-MEL-5 melanoma; 28.8 µM in the assay on NCI-H460 lung; 3.8 µM in the assay with A498 renal; 33.1 µM in the assay with HCT-116 colon; greater than 100 µM in the assay with ACHN renal. Also, the TGI with OVCAR-8 ovarian is 29.8 µM; in the assay on MCF7 breast, 90 µM; in the assay with HOP-62 NSCLC it was 18.8 µM; in the assay on U251 CNS, 15.1 µM.
